Laboratory results: patent US20220242851A1, “CRYSTAL FORM AND SALT OF QUINAZOLINE COMPOUND AND PREPARATION METHOD THEREOF” (SHENZHEN JINRUI FOUNDATION BIOTECH CO., LTD, priority 2019, published 2022)

Legend:
[1] = molecular target: HER1(ErbB1) (Homo sapiens, UniProt P00533); experiment: In vitro enzyme activity, HER1 (radiometric, Eurofins); format: biochemical; conditions: conclusion
Protocol: (§1) The purpose of this assay is to detect the in vitro inhibitory activity of compounds on HER1(ErbB1), HER2(ErbB2), and HER4(ErbB4). The enzymes used in this assay are human ErbB 1, ErbB2 and ErbB4. Eurofins Pharma Discovery Service provided the method for activity detection. Steps and method of the assay (96-well plate): A buffer solution of the assay compounds in a dilution of 5-fold (5 μL), polypeptide substrate poly(Glu, Tyr) (4:1) (2.5 μL), ErbB (4-20 ng, 2.5 μL), MnCl2 (50 mM, 1.25 μL), dH2O (3.75 μL), and [γ-^33P]ATP (10 μL) were added, and incubated at 30° C. for 10 minutes. The reaction was terminated by adding 3% phosphoric acid. 10 μL of the sample was taken and transferred to Filtermate A. The filter disc was washed 3 times with 75 mM phosphoric acid and once with methanol. The filter disc was transferred to a sealed plastic bag and the scintillation mixture (4 mL) was added. The intensity of the emitted photon was detected by a scintillation luminescence counter. The CPM (times/min) of the enzyme sample was compared with the CPM of the internal control sample. The level of photon intensity reflected the degree of the tyrosine kinase activity.

[2] = molecular target: HER4(ErbB4) (Homo sapiens, UniProt Q15303); experiment: In vitro enzyme activity, HER4 (radiometric, Eurofins); format: biochemical; conditions: conclusion
Protocol: as §1

[3] = test system: NCI-N87 cell; experiment: Inhibition of cell proliferation, Cell-Titer-Glo, NCI-N87; format: cell-based, human; conditions: conclusion
Description: Purpose of the assay: the inhibitory activity of the assay compounds on cell proliferation was detected. Principle of the assay: the luciferase in a Cell-Titer-Glo reagent produces oxidized luciferin with luciferin, oxygen and ATP as reaction substrates, and releases energy in the form of light. Since the luciferase reaction requires ATP, the total amount of light generated by the reaction is proportional to the total amount of ATP that reflects cell viability. Cell line: NCI-N87 cell line (ATCC-CRL-5822), BT-474 cell line (ATCC-HTB-20), OE21 (ECACC-96062201) Cell culture medium: […] L-[…]×, Gibco#25030-081; penicillin-streptomycin Hyclone# SV30010) Cell Titer-Glo® cell viability assay kit with luminescence (Promega #G7573) 384-well cell culture plate (Greiner # 781090) Compound plate (LABCYTE # LP-0200) CO2 incubator (Thermo#371) Vi-cell cell counter (Beckman Coulter) According to the schematic diagram of the cell seed plate, cells were seeded in a 384- or 96-well plate at a density of 1000 cells per well and 25 μL per well, and 25 μL of PBS was added to the wells near edge of the place where no cells were seeded. (1) The stock solution of the compounds has a concentration of 10 mM, and the compounds were diluted with DMSO to an initial concentration of 4 mM. […] After 10 minutes, the plate was read on PerkinElmer Envision, and the […] reading time was set to 0.2 second.

[4] = test system: subcutaneous xenograft tumor of human esophageal carcinoma OE21 cells; experiment: In vivo pharmacodynamics, OE21 subcutaneous xenograft (Assay Example 5); design: species or system mouse
Protocol: Purpose of the assay: in vivo efficacy of the assay compound on subcutaneous xenograft tumor of human esophageal carcinoma OE21 cells in a BALB/c nude mouse model was evaluated.
Animals of the assay: female BALB/c nude mice, 6-8 weeks old, weighted 17-23 grams; supplier: shanghai sippr bk laboratory animals Ltd.
Human esophageal carcinoma OE21 cells were cultured in monolayer in vitro. The culture conditions were RPMI-1640 medium plus 10% fetal bovine serum, 100 U/mL penicillin, 100 U/mL streptomycin and 2 mM glutamine, 37° C., 5% CO2. The passaging was performed by conventional digestion with trypsin-EDTA twice a week. When the cell saturation was 80%-90%, the cells were collected, counted and inoculated.
0.1 ml […] OE21 cells (PBS) were inoculated subcutaneously on the right back of each mouse. When the average tumor volume reached 112 mm^3, administration to each group was started.
The assay compound was formulated into a 0.15 mg/mL to 0.3 mg/mL clear or suspension solution in the solvents of 10% NMP+10% ethylene glycol stearate+80% water.
The assay index was to investigate whether tumor growth is inhibited, delayed or cured. Tumor diameter was measured twice a week with vernier caliper. The calculation formula of tumor volume was: V=0.5a×b^2, wherein a and b represent the long and short diameters of tumor, respectively.
The antitumor efficacy of the compounds was evaluated by TGI (%) or relative tumor proliferation rate T/C (%). TGI (%) reflects the tumor growth inhibition rate. TGI (%) was calculated as follows: TGI (%)=[(1−average tumor volume at the end of administration for a certain treatment group−average tumor volume at the beginning of administration for this treatment group))/(average tumor volume at the end of treatment for a vehicle control group−average tumor volume at the beginning of administration for this vehicle control group)]×100%.
Relative tumor proliferation rate T/C (%): the calculation formula was as follows: T/C (%)=average tumor volume at the end of administration for a certain treatment group/average tumor volume at the end of treatment for the vehicle control group×100%.
Statistical analysis included the mean and standard error of mean (SEM) of tumor volume at each time point in each group. One-way ANOVA was used for comparison among three or more groups. […] SPSS 17.0 was used for all data analysis. p<0.05 was considered a significant difference.

[5] = molecular target: T1, CYP2C9 (Homo sapiens, UniProt P11712); experiment: Inhibition of CYP enzyme activity in human liver microsome, CYP2C9; format: in vitro ADME; conditions: versus Poziotinib
T1 construct: in the assay of CYP enzyme activity in human liver microsome; from tissue; host or cells: human liver microsome
Description: The results of the compound disclosed herein and the reference compound Poziotinib in the assay of CYP enzyme activity in human liver microsome were shown in the following table (Table 17).

HER1(ErbB1), sequence (P00533 25-1210): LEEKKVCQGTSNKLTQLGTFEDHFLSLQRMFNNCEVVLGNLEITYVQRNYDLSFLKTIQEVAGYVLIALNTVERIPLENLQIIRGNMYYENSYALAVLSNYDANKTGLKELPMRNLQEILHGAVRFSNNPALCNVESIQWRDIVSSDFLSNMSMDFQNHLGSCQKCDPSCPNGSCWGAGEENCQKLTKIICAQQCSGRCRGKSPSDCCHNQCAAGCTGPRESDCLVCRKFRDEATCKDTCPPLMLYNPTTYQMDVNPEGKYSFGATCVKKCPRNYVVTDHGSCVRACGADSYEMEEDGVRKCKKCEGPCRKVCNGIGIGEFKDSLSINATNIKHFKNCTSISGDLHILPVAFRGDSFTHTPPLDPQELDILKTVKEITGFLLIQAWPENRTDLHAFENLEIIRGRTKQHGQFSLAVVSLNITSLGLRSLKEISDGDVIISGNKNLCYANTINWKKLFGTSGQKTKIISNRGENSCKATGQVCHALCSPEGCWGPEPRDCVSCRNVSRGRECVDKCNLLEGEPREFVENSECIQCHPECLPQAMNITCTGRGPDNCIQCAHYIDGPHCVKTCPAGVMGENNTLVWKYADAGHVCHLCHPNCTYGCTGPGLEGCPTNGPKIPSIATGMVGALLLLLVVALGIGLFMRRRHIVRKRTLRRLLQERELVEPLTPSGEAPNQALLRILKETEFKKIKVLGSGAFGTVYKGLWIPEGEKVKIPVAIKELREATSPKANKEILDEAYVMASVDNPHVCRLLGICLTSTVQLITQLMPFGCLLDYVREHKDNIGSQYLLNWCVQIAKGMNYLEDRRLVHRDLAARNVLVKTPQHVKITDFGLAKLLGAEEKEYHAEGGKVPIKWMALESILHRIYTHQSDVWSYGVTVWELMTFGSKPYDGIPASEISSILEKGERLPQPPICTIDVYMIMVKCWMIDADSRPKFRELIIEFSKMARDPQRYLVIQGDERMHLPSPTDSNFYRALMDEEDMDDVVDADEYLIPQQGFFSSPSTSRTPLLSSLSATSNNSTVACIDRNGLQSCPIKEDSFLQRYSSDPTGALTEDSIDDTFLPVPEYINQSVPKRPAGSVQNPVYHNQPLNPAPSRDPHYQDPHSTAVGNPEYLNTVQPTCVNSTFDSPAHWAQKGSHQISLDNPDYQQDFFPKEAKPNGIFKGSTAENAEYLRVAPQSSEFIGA
T1 sequence (P11712 whole entry): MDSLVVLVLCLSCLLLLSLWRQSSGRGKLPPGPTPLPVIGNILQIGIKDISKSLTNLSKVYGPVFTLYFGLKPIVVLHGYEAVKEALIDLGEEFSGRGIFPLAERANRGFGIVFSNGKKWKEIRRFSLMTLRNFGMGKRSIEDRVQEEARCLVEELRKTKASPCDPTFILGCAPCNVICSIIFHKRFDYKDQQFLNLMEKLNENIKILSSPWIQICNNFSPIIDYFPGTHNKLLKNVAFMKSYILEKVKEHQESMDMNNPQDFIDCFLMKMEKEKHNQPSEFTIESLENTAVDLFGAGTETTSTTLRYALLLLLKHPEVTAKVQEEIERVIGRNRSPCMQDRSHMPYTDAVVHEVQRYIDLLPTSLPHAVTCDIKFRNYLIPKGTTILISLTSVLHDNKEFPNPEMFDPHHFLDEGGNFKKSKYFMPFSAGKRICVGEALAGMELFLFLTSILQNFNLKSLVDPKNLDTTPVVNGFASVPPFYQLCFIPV
HER4(ErbB4), sequence (Q15303 26-1308): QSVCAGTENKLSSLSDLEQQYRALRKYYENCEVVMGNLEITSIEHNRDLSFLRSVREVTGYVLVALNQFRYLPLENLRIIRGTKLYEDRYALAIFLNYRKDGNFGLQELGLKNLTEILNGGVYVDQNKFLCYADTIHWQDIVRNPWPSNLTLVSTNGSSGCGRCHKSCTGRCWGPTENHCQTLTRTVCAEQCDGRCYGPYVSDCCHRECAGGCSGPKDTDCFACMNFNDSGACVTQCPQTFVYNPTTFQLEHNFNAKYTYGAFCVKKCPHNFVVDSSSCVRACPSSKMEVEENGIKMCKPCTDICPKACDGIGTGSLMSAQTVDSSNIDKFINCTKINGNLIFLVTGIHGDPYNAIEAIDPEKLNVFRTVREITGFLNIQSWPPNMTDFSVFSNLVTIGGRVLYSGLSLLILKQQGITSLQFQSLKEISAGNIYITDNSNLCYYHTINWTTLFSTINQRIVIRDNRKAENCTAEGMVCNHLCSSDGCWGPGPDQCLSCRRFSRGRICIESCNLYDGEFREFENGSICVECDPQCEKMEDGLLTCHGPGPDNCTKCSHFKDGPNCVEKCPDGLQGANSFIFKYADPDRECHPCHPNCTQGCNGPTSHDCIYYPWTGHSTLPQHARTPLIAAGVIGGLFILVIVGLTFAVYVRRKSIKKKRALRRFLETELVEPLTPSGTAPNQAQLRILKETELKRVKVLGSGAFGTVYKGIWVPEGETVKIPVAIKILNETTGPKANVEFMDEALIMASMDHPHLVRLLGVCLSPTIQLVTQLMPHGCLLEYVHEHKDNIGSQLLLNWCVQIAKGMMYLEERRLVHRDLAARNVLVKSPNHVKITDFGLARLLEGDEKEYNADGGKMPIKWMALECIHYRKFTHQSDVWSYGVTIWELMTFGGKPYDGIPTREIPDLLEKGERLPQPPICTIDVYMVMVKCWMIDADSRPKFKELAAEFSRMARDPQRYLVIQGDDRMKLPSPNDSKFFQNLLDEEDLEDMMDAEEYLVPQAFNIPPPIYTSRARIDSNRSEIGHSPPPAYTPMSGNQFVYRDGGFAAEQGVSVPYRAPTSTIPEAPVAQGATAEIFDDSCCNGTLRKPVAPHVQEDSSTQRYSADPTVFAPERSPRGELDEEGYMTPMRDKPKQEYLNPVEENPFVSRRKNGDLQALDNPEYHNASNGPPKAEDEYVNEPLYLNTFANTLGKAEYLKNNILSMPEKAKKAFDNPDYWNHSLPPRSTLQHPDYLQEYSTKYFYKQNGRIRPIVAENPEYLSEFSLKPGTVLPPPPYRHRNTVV

SMILES: C=CC(=O)N1[C@@H]2CC[C@H]1C[C@H](Nc1cc3c(Nc4ccc(Cl)c(Cl)c4F)ncnc3cc1OC)C2 [Compound of formula (I)]
- inhibitory activity on HER1 (in words) [1]: significant inhibitory activity
- inhibitory activity on HER4 (in words) [2]: significant inhibitory activity
- inhibitory activity on the proliferation of NCI-N87 cells (in words) [3]: significant inhibitory activity
- body weight and clinical signs (in words) ([4]; 2/1.5 mg/kg): varying degrees of body weight loss and dandruff
- tumor inhibitory effect (in words) ([4]; 2/1.5 mg/kg, compared with the vehicle control group): significant tumor inhibitory effect
- Tumor volume (Day 21) ([4]; 2/1.5 mg/kg, Day 21, Mean + SEM): 55 ± 13 mm3
- effect on the body weight of mice (in words) ([4]; discussion, high-dose group): little effect on the body weight of mice
- efficacy at low dose (in words) ([4]; low dose of 0.5 mpk): comparable to that of the reference compound Poziotnib and the compound of formula (I) at a high dose of 1.5 mpk
- dark yellow urine, suggestion of toxicity (in words) ([4]; mouse, in vivo): without the toxicity suggestion of dark yellow urine
- activity on CYP2C9, times better than the reference compound [5]: 2 times
